Results from PubChem BioAssay AID1645864 (Buhrlage Lab, Dana-Farber Cancer Institute and Novartis …, 2021).
The source made the active and inactive calls.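 Rule for the calls: active = maximal inhibition of USP17 at or above 30% in the confirmation dose-response, a value not among the printed readouts; inactive = the rest.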

What follows are compounds tested against Ubiquitin carboxyl-terminal hydrolase 17-like protein 5 (Homo sapiens) (UniProt A8MUK1) (assay: ubiquitin-specific protease 17 DUB inhibitors, concentration-effect assay, cell-free, verification of initial screening actives (AID 1645864)). Conditions: purified USP17, ubiquitin-rhodamine cleavage fluorescence, 3 h.
Sequence of Ubiquitin carboxyl-terminal hydrolase 17-like protein 5 (Homo sapiens) (A8MUK1 whole entry, looked up): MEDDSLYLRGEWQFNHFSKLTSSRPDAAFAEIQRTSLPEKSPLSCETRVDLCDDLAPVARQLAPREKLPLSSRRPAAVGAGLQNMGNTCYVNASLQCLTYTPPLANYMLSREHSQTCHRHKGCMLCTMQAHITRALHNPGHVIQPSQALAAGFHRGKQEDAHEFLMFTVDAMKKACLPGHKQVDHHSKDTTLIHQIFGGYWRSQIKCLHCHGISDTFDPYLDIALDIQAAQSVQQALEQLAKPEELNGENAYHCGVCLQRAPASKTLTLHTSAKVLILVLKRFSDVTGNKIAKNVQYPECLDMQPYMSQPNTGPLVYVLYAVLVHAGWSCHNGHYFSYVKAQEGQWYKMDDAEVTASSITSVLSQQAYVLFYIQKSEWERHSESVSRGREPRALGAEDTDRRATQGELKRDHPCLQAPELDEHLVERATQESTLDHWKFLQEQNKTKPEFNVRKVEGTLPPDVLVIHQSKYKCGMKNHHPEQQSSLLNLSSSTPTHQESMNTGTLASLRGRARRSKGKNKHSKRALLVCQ

Row | Structure (SMILES) | IC50
1 | C=C(NC(=O)C(=C)NC(=O)c1csc(C2=N[C@@H]3c4csc(n4)[C@H]4NC(=O)c5csc(n5)[C@H]([C@](C)(O)[C@@H](C)O)NC(=O)C5CSC(=N5)/C(=C/C)NC(=O)C([C@@H](C)O)NC(=O)c5csc(n5)[C@]3(CC2)NC(=O)[C@H](C)NC(=O)C(=C)NC(=O)[C@H](C)NC(=O)C([C@@H](C)CC)NC2C=Cc3c(C(C)O)cc(nc3[C@H]2O)C(=O)OC4C)n1)C(N)=O (stereo partly specified) | > 50 µM (inactive)
2 | COc1ccc(C(=O)CSc2ccc3nnc(CCNC(=O)c4ccc(OC)cc4)n3n2)cc1 | > 50 µM (inactive)
3 | CCOC(=O)c1ccc(-n2c(=O)c(C#N)cc3c(=O)n4ccccc4nc32)cc1 | > 50 µM (inactive)
4 | COc1ccc(-c2nc(-c3nnn(Cc4ccc(F)cc4)c3C)no2)c(OC)c1 | 6.53 µM
5 | COc1cc(/C=C/C(=O)OCC(=O)Nc2ccc([N+](=O)[O-])cc2OC)ccc1O | 19.9 µM
6 | O=C(c1ccnn1-c1ccc2ccc(-c3ccncc3)cn12)N1CCCC1 | > 50 µM (inactive)
7 | N[C@@H](Cc1ccccc1)C(=O)N1CCC2(CC1)CN(C(=O)c1ccc(Cl)cc1)CCO2 | > 50 µM (inactive)
8 | O=C(COc1ccc(Cl)cc1Cl)Nc1ccc2[nH]c(=O)[nH]c2c1 | 7.41 µM
9 | CCOc1ccc(NC(=O)COc2cccc3c2CCN(CC)C3=O)cc1 | > 50 µM (inactive)
10 | COc1ccc(NC(=O)c2nnn(-c3ccccc3F)c2C)cc1OC | > 50 µM (inactive)
11 | O=C(CCc1ccc(S(=O)(=O)N2CCOCC2)cc1)Nc1ccc2c(c1)OCCO2 | > 50 µM (inactive)
12 | COc1ccc(-c2nc(CNC(=O)COc3ccc(C)cc3)cs2)cc1 | 36.9 µM
13 | CC(C)c1ccc(C(C(=O)NC2CCCCC2)N(C(=O)c2cnccn2)c2cccc(F)c2)cc1 (stereo unspecified) | 27.2 µM
14 | CCCCc1nc2sc3c(SCC(=O)Nc4cccc(C)c4)ncnc3c2c2c1CCC2 | 14 µM
15 | CC(C)Cc1nc2oc3c(N(C)CCO)ncnc3c2c2c1CCC2 | > 50 µM (inactive)
16 | Cc1cccc(-c2nc3n(CC(=O)Nc4ccc(Cl)cc4)c(C)cc(=O)n3n2)c1 | 0.335 µM
17 | Cc1nc(N2CCCC2)ncc1-c1cc(=O)[nH]c(N2CCc3ccccc3C2)n1 | 21.6 µM
18 | O=C1C/C(=C\c2cccc(Cl)c2)Cc2ccccc21 | > 50 µM (inactive)
19 | Cc1cc(NC(=O)c2nnn(-c3ccccc3Cl)c2C)no1 | > 50 µM (inactive)
20 | CSc1cccc(NC(=O)CCc2ccc3nc(NC(C)=O)sc3c2)c1 | > 50 µM (inactive)
21 | O=C(NCCc1ccccn1)c1cc(-c2ccc(Br)cc2)n[nH]1 | 17.9 µM
22 | CC(c1ccccc1)n1c(-c2ccc(F)cc2)nc2c(c(=O)c3ccccc3n2C)c1=O (stereo unspecified) | 2.85 µM
23 | CC1OC(CC(=O)O)CC23OC12C(=O)c1c(O)cccc1C3=O (stereo unspecified) | 1.33 µM
24 | COCCn1ccc2nc(C)c(C(=O)Nc3ccc4c(c3)OCCO4)cc2c1=O | 37 µM

Row | Structure (SMILES) | IC50
25 | CCn1c(CNc2ccc(Cl)cc2)nnc1SCC(=O)Nc1ccccc1 | > 50 µM (inactive)
26 | CC1(C)Cc2c(c(-c3ccco3)nc3sc4c(SCCCc5ccccc5)ncnc4c23)CO1 | 34.4 µM
27 | Cc1ccc(NC(=O)c2cnc(N3CCOCC3)nc2)cc1F | 28.6 µM
28 | C=C1CCC2[C@](C)(CCC[C@]2(C)C(=O)OC)[C@H]1CCc1ccoc1/C=C/C(=O)O (stereo partly specified) | 32.5 µM
29 | Cc1cccc(C(=O)Nc2cccc(SC(C(=O)Nc3ccc(O)c(C(=O)O)c3)c3ccccc3)c2)c1 (stereo unspecified) | 11.5 µM
30 | C[C@H](NC(=O)Cc1ccccc1F)c1nc2cc(-c3ccccc3F)ncn2n1 | > 50 µM (inactive)
31 | Cc1ccn(-c2ccc(NC(=O)c3ccccc3Sc3ccccc3C#N)cc2)n1 | 44.7 µM
32 | Cc1noc(C)c1CN1CC[C@H]2O[C@H](C(=O)NCc3ccco3)CC[C@H]21 | > 50 µM (inactive)
33 | COc1ccc2[nH]c3c(c2c1)CCN1C(=O)N(c2ccccc2C(=O)NCc2ccccc2)C(=O)[C@]31C | 34.5 µM
34 | COc1ccc2c(c1)CCc1c(C(=O)NCc3cccnc3)noc1-2 | 25.2 µM
35 | COc1cccc(OCCCn2c(C(C)NC(=O)c3ccco3)nc3ccccc32)c1 (stereo unspecified) | 33.5 µM
36 | Cc1cc(O)c2c3c(c(O)cc2c1)C(=O)c1c(O)cccc1C3=O | 0.407 µM
37 | Cc1ccc(NC(=O)Cc2nnc3cc(-c4nc(C)no4)ccn23)cc1 | 18.7 µM
38 | COc1ccc(-c2cc3nc(C)cc(Nc4ccc(F)cc4)n3n2)cc1OC | > 50 µM (inactive)
39 | Cc1nn(Cc2ccccc2)c(Cl)c1C(=O)NC1CCCc2ccccc21 (stereo unspecified) | > 50 µM (inactive)
40 | Cn1c(CN2CCCCCC2)nc2cc(NC(=O)c3ccccc3)ccc21 | > 50 µM (inactive)
41 | Fc1ccc(Cn2ccc(-c3cnc(-c4ccccc4)s3)n2)cc1 | > 50 µM (inactive)
42 | Cn1cc(-c2cnc(-c3cccc(F)c3)nc2)cc1C(=O)NCc1cccnc1 | 37.8 µM
43 | Nc1ccc(F)c(NS(=O)(=O)c2ccccc2)c1 | > 50 µM (inactive)
44 | COc1ccc(CNC(=O)CCc2nc3sc4c(c3c(=O)[nH]2)CCCCC4)cc1 | > 50 µM (inactive)
45 | CCOc1ccc(NC(=O)Cn2c(=O)n(CCC(=O)NCc3ccccc3OC)c(=O)c3ccccc32)cc1 | 4.35 µM
46 | CCn1c(=O)c(=O)[nH]c2cc(C(=O)Nc3cccc(-c4csc(C)n4)c3)ccc21 | 26.9 µM
47 | CCC[C@H]1O[C@@H]2CC(=O)O[C@@H]2C2=C1C(=O)c1c(O)cccc1C2=O | 1.08 µM
48 | Cc1ccn(-c2ccc(NC(=O)C3CCCCC3)cc2)n1 | 20.2 µM

Row | Structure (SMILES) | IC50
49 | Cc1ccc(-c2nc(-c3cccs3)cc(C(F)(F)F)c2C#N)cc1 | > 50 µM (inactive)
50 | COC(=O)c1ccc2c(=O)n(CCCCCC(=O)NCc3cccc(Cl)c3)c(=O)[nH]c2c1 | 2.36 µM
51 | COc1cc(-c2ccno2)ccc1S(=O)(=O)Nc1ccccc1Cl | > 50 µM (inactive)
52 | CCc1ccc(C2c3c(oc4ccccc4c3=O)C(=O)N2c2nncs2)cc1 (stereo unspecified) | > 50 µM (inactive)
53 | COc1ccc(C2CC(c3ccc(C)cc3)N(C(=O)C3CC3)c3ncnn32)cc1 (stereo unspecified) | > 50 µM (inactive)
54 | COc1ccc(-c2nc3n(n2)C(CC(=O)Nc2cccc4ccccc24)C(=O)N3)cc1 (stereo unspecified) | 8.65 µM
55 | Cc1ccc(C)c(S(=O)(=O)N2CCN(c3ccc4nnc(-c5ccco5)n4n3)CC2)c1 | 22.6 µM
56 | Cc1ccc(-n2c(-c3ccccc3)cn3c4c(=O)[nH]c(=O)n(C)c4nc23)cc1Cl | 0.226 µM
57 | COc1ccc2cc3c(nc2c1)OC(=O)N(CCc1cccc(F)c1)C3 | 0.0729 µM
58 | NS(=O)(=O)c1cc(C(=O)OCC(=O)NC2CCCc3ccccc32)ccc1Cl (stereo unspecified) | 47.4 µM
59 | CN(C(=O)c1ccncc1)[C@H]1CC[C@@]2(C)C[C@H](c3ccccc3)C[C@](C)(O2)[C@@H]1O | > 50 µM (inactive)
60 | Cc1ccc(C(=O)Nc2ccc3nccnc3c2)cc1 | > 50 µM (inactive)
61 | CN(C(=O)CSc1nnc(-c2cc3ccccc3n2C)o1)c1ccccc1 | > 50 µM (inactive)
62 | Cc1ccccc1NC(=O)Nc1ccccc1OCc1cc(=O)n2cccc(C)c2n1 | 0.663 µM
63 | Cc1ccccc1Cn1ccc2ccn(Cc3cccnc3)c2c1=O | > 50 µM (inactive)
64 | CCOc1ccc(NC(=O)Cn2cc(C(=O)c3ccc(Cl)cc3)c(=O)c3cc(OC)ccc32)cc1 | 2.74 µM
65 | Cc1cc(N2CCN(c3ncccn3)CC2)nc2ccc(NC(=O)c3ccncc3)cc12 | 2.99 µM
66 | Cc1cccc(NC(=O)CSc2nnc(-c3n[nH]c4c3CCC4)n2N)c1C | 18.1 µM
67 | CCOc1cc(C2C3=C(CC(C)(C)CC3=O)Nc3onc(C)c32)ccc1O (stereo unspecified) | 39.7 µM
68 | COc1ccc(C(=O)CCN2CCOCC2)cc1[N+](=O)[O-] | > 50 µM (inactive)
69 | O=C1Cc2ccccc2C(=O)N1c1ccc2c(c1)OCO2 | 22.6 µM
70 | COc1ccc(-c2cc3nc([C@H](C)NC(=O)Cc4ccccc4C)nn3cn2)cc1 | 2.38 µM
71 | O=C(NCc1ccccc1)Nc1cccc2ccccc12 | 34 µM
72 | CCCc1cc(=O)n2[nH]c(COc3ccccc3)c(-c3ccccc3)c2n1 | 41.7 µM

Row | Structure (SMILES) | IC50
73 | COc1ccc(OC)c2c(C)cc(N3CCN(S(=O)(=O)c4ccc5c(c4)CCCN5S(C)(=O)=O)CC3)nc12 | 9.83 µM
74 | COc1ccc(-c2nonc2NC(=O)C(c2ccccc2)c2ccccc2)cc1OC | > 50 µM (inactive)
75 | COc1ccc(NC2c3ccccc3C(=O)N2c2ccccn2)cc1 (stereo unspecified) | > 50 µM (inactive)
76 | COc1ccc(OC)c(-n2c(SCC(=O)N3CCc4ccccc43)nnc2-c2cccc(S(=O)(=O)N(C)C)c2)c1 | 3.51 µM
77 | CN(C)c1ccc(CCN2CCc3nc4cccnc4cc3C2)cc1 | > 50 µM (inactive)
78 | COc1ccc(-c2cc(-c3ccc(O)cc3)nc(N)c2C#N)cc1OC | > 50 µM (inactive)
79 | COc1ccc(-c2cc(C(=O)NC3CCCCCC3)[nH]n2)cc1S(=O)(=O)N(C)C | 44.5 µM
80 | COc1ccc(OC)c(-c2c(C#N)c(C)nc3c2N2CCC3CC2)c1 | 6.92 µM
81 | COc1cc(C)c2c(=O)c3c(oc2c1)C(=O)c1c(O)c(OC)cc(O)c1C3=O | 0.609 µM
82 | Cc1nc(-c2ccc(C(=O)NCc3ccc(F)cc3)cc2)cs1 | 48.1 µM
83 | COc1ccccc1NC(=O)CNC(=O)c1nn(-c2ccc(OC)c(OC)c2)c(=O)c2ccccc12 | 29.4 µM
84 | CC(C)(C)c1ccc(Cn2nnc3c(=O)[nH]c(C4CCN(S(=O)(=O)c5ccc(S(=O)(=O)NC6CC6)cc5)CC4)nc32)cc1 | 39.3 µM
85 | COc1ccc(-c2nc(SCC(=O)Nc3ccc(Cl)cc3F)n[nH]2)cc1 | 47.5 µM
86 | O=C(Nc1cccc(-c2noc(C3CCC3)n2)c1)C1CC(=O)N(c2ccccc2)C1 (stereo unspecified) | 14.1 µM
87 | Cc1csc2ncc(C(=O)N3CCN(c4ccccc4F)CC3)c(=O)n12 | > 50 µM (inactive)
88 | CC1Oc2ccccc2C(=O)N(Cc2ccc([N+](=O)[O-])cc2)C1=O (stereo unspecified) | > 50 µM (inactive)
89 | COc1cccc(/C=C/c2nc(C#N)c(N3CCN(C(=O)c4cccs4)CC3)o2)c1 | > 50 µM (inactive)
90 | COc1ccc(C2C(C(=O)Nc3ccccc3OC)=C(C)Nc3nnnn32)cc1Br (stereo unspecified) | 36.3 µM
91 | N#Cc1c(Cl)cccc1Oc1ccc(S(=O)(=O)N2CCC(O)CC2)cc1 | 27.4 µM
92 | c1ccc2c(Cc3nc(-c4ccncc4)no3)cccc2c1 | > 50 µM (inactive)
93 | O=C(c1cn(-c2cccc(F)c2)nn1)N1CCc2ccccc2C1 | 18.5 µM
94 | O=c1sc2ccccc2c(=O)n1Cc1cccc(C(F)(F)F)c1 | > 50 µM (inactive)
95 | CCOc1ccc2nc(NC(=O)C3CCN(S(=O)(=O)c4ccc5c(c4)CC(C)N5C(C)=O)CC3)sc2c1 (stereo unspecified) | > 50 µM (inactive)
96 | Cc1cc(O)cc2cc3c(c(O)c12)C(=O)CCC3O (stereo unspecified) | > 50 µM (inactive)
